# Source: US12606795B2 (Thankcome Biological Science and Technology (SuZhou) Co., …, priority 2023, dated 2026)
# Assays:
# SPF Kunming mice = experiment: Acute toxicity in mice; type: in vivo; conditions: for Granulocyte number GR# / Granulocyte percentage GR % / Hematocrit HCT / Hemoglobin HGB / Lymphocyte number Lym# / Lymphocyte percentage Lym % / Mean corpuscular hemoglobin MCH / Mean corpuscular volume MCV / Mean corpuscular-hemoglobin concentration MCHC / Mean platelet volume MPV / Middle cell number Mid# / Middle cell percentage Mid % / Platelet distribution PDW / Platelet-large cell count PLCC / Platelet-large cell ratio PLCR / Plateletcrit PCT / Platelets PLT / Red blood cell distribution width coefficient of variation RDW_CV / Red blood cell distribution width standard deviation RDW_SD / Red blood cells RBC / While blood cells WBC: acute toxicity
# Protocol: The groups were recorded as a sodium chloride solution group, a low dosage group, a medium dosage group and a high dosage group, respectively, and the general conditions and the body weight were observed per day within 7 to 10 d. At the end of the experimental period, blood samples were collected for hematological and serum biochemical analysis (refer to Embodiment 4). A histopathological examination of major organs and tissue was performed on all animals in each group (refer to Embodiment 4).
# [1] = Tolerance to artificial intestinal juice; type: physicochemical; conditions: artificial intestinal juice pH 8.0, 37° C., at 240 min
# Protocol: Gastric juice ([…], 2 g/L NaCl, and 3.2 g/L pepsin, pH 2.0) and intestinal juice (6.8 g/L KH2 PO4, 10 g/L trypsin, and 0.1M NaOH, pH 8.0) were prepared, and then the gastric juice and the intestinal juice were filtered and sterilized using 0.22 μm sterile filter. […] The bacterial cells were washed twice with sterile saline and resuspended in 5 mL saline. A bacterial solution was mixed well with the sterile artificial gastric or intestinal juice in 1:1 (v/v). The mixture was shaken well, and then was placed in a constant-temperature incubator and culture was performed at 37° C.
# [2] = high dosage 5×10^11 CFU/d intragastric for 1 d
# [3] = low dosage 1×10^9 CFU/d intragastric for 1 d
# [4] = medium dosage 5×10^10 CFU/d intragastric for 1 d
substance,measurement,setting,value
Akkermansia muciniphila [AKK PROBIO],pathological sections of livers and kidneys,SPF Kunming mice; acute,no significant pathological injury
same,death,"SPF Kunming mice; acute intragastric administration, high, medium and low dosage (5×10^11, 5×10^10, 1×10^9 CFU/d)",no death occurs
same,Granulocyte number GR#,SPF Kunming mice; [2],0 ± 0 10^9/L
same,Granulocyte percentage GR %,SPF Kunming mice; [2],0 ± 0%
same,Hematocrit HCT,SPF Kunming mice; [2],7.35 ± 2.76%
same,Hemoglobin HGB,SPF Kunming mice; [2],110.00 g/L
same,Lymphocyte number Lym#,SPF Kunming mice; [2],0.54 ± 0.37 10^9/L
same,Lymphocyte percentage Lym %,SPF Kunming mice; [2],100 ± 0%
same,Mean corpuscular hemoglobin MCH,SPF Kunming mice; [2],81.55 pg
same,Mean corpuscular volume MCV,SPF Kunming mice; [2],52.60 fL
same,Mean corpuscular-hemoglobin concentration MCHC,SPF Kunming mice; [2],1579.00 g/L
same,Mean platelet volume MPV,SPF Kunming mice; [2],9.20 ± 0.71 fL
same,Middle cell number Mid#,SPF Kunming mice; [2],0 ± 0 10^9/L
same,Middle cell percentage Mid %,SPF Kunming mice; [2],0 ± 0%
same,Platelet distribution PDW,SPF Kunming mice; [2],21.00%
same,Platelet-large cell count PLCC,SPF Kunming mice; [2],218.50 ± 10^9/L
same,Platelet-large cell ratio PLCR,SPF Kunming mice; [2],19.70%
same,Plateletcrit PCT,SPF Kunming mice; [2],1.04 ± 0.40%
same,Platelets PLT,SPF Kunming mice; [2],1112.50 ± 10^9/L
same,Red blood cell distribution width coefficient of variation RDW_CV,SPF Kunming mice; [2],13.75%
same,Red blood cell distribution width standard deviation RDW_SD,SPF Kunming mice; [2],92.55 fL
same,Red blood cells RBC,SPF Kunming mice; [2],1.38 ± 0.35 10^12/L
same,While blood cells WBC,SPF Kunming mice; [2],0.54 ± 0.37 10^9/L
same,Granulocyte number GR#,SPF Kunming mice; [3],0.05 ± 10^9/L
same,Granulocyte percentage GR %,SPF Kunming mice; [3],3.8%
same,Hematocrit HCT,SPF Kunming mice; [3],11.70%
same,Hemoglobin HGB,SPF Kunming mice; [3],87.50 g/L
same,Lymphocyte number Lym#,SPF Kunming mice; [3],0.82 ± 10^9/L
same,Lymphocyte percentage Lym %,SPF Kunming mice; [3],95.55%
same,Mean corpuscular hemoglobin MCH,SPF Kunming mice; [3],45.35 pg
same,Mean corpuscular volume MCV,SPF Kunming mice; [3],55.90 fL
same,Mean corpuscular-hemoglobin concentration MCHC,SPF Kunming mice; [3],802.00 g/L
same,Mean platelet volume MPV,SPF Kunming mice; [3],9.55 fL
same,Middle cell number Mid#,SPF Kunming mice; [3],0.01 ± 10^9/L
same,Middle cell percentage Mid %,SPF Kunming mice; [3],0.65%
same,Platelet distribution PDW,SPF Kunming mice; [3],19.10%
same,Platelet-large cell count PLCC,SPF Kunming mice; [3],273.50 ± 10^9/L
same,Platelet-large cell ratio PLCR,SPF Kunming mice; [3],27.65%
same,Plateletcrit PCT,SPF Kunming mice; [3],0.89%
same,Platelets PLT,SPF Kunming mice; [3],921.00 ± 10^9/L
same,Red blood cell distribution width coefficient of variation RDW_CV,SPF Kunming mice; [3],14.85%
same,Red blood cell distribution width standard deviation RDW_SD,SPF Kunming mice; [3],76.40 fL
same,Red blood cells RBC,SPF Kunming mice; [3],2.12 ± 10^12/L
same,While blood cells WBC,SPF Kunming mice; [3],0.88 ± 10^9/L
same,Granulocyte number GR#,SPF Kunming mice; [4],0.06 ± 10^9/L
same,Granulocyte percentage GR %,SPF Kunming mice; [4],4.20 ± 5.94%
same,Hematocrit HCT,SPF Kunming mice; [4],11.70%
same,Hemoglobin HGB,SPF Kunming mice; [4],96.00 g/L
same,Lymphocyte number Lym#,SPF Kunming mice; [4],0.99 ± 10^9/L
same,Lymphocyte percentage Lym %,SPF Kunming mice; [4],95.20%
same,Mean corpuscular hemoglobin MCH,SPF Kunming mice; [4],49.20 pg
same,Mean corpuscular volume MCV,SPF Kunming mice; [4],53.05 fL
same,Mean corpuscular-hemoglobin concentration MCHC,SPF Kunming mice; [4],892.00 g/L
same,Mean platelet volume MPV,SPF Kunming mice; [4],9.15 ± 0.78 fL
same,Middle cell number Mid#,SPF Kunming mice; [4],0.01 ± 10^9/L
same,Middle cell percentage Mid %,SPF Kunming mice; [4],0.60%
same,Platelet distribution PDW,SPF Kunming mice; [4],20.15%
same,Platelet-large cell count PLCC,SPF Kunming mice; [4],158.50 ± 10^9/L
same,Platelet-large cell ratio PLCR,SPF Kunming mice; [4],18.00%
same,Plateletcrit PCT,SPF Kunming mice; [4],0.84 ± 0.54%
same,Platelets PLT,SPF Kunming mice; [4],891.50 ± 10^9/L
same,Red blood cell distribution width coefficient of variation RDW_CV,SPF Kunming mice; [4],13.05%
same,Red blood cell distribution width standard deviation RDW_SD,SPF Kunming mice; [4],73.40 fL
same,Red blood cells RBC,SPF Kunming mice; [4],2.28 ± 10^12/L
same,While blood cells WBC,SPF Kunming mice; [4],1.06 ± 10^9/L
same,weight of major organs (organ indices),"SPF Kunming mice; acute, heart, liver, spleen, kidneys, thymus, brain, testes, lungs, stomach, intestine, vs control group",substantially no significant difference
same,activity of glutamic oxalacetic transaminase (GOT) in both serum and liver,"SPF Kunming mice; acute, vs control group",no significant difference
same,activity of glutamic pyruvate transaminase (GPT) in both serum and liver,"SPF Kunming mice; acute, vs control group",no significant difference
same,concentration of blood urea nitrogen (BUN) in serum,"SPF Kunming mice; acute, vs control group",no significant difference
same,content of creatinine (GRE) in serum,"SPF Kunming mice; acute, vs control group",no significant difference
same,level of glucose (GLU) in both serum and liver,"SPF Kunming mice; acute, vs control group",no significant difference
same,level of the bile acid in both serum and liver,"SPF Kunming mice; acute, vs control group",no significant difference
same,level of the cholesterol in both serum and liver,"SPF Kunming mice; acute, vs control group",no significant difference
same,level of total protein (TP) in both serum and liver,"SPF Kunming mice; acute, vs control group",no significant difference
same,level of the triglyceride in serum,"SPF Kunming mice; acute, vs control mice",no significant difference
same,changes of blood glucose per day,"SPF Kunming mice; acute, vs control saline group",no significant difference
same,changes of body weight per day,"SPF Kunming mice; acute, vs control saline group",no significant difference
same,changes of food intake per day,"SPF Kunming mice; acute, vs control saline group",no significant difference
same,level of triglyceride in the liver,"SPF Kunming mice; acute, vs control saline group",significantly lower
same,various blood indicators,"SPF Kunming mice; acute, vs control saline group",no significant difference
same,survival rate in intestinal juice,[1],≥ 80%
